Where a name gives a salt, the structure may show the parent alone.
Experiments:
human EAAT2 = test: EAAT2 protein levels in PA-EAAT2 cells by Western blot; assay type: cell-based; conditions: PA-EAAT2 cells, 24 hr; for Fold increase for EAAT2 at indicated concentration (maximum activity): EAAT2 protein relative to DMSO; for concentration that reaches maximum activity: tested 0.0375-10 μM
Method: Compounds were evaluated in PA-EAAT2 cells, a primary astrocyte stably expressing human EAAT2 mRNAs (Kong et al., J Clin Invest. 2014:1255-67). Cells were treated with compound at 0.0375, 0.075, 0.15, 0.3, 0.6, 1.25, 2.5, 5, 10 μM for 24 hr and then harvested for measuring EAAT2 protein levels by Western blot analysis.

EAAT2 = EAAT2 protein levels in brains of wild-type C57BL/6 mice by Western blot; assay type: in vivo; conditions: oral 0.01-100 mg/kg/day for seven or 28 days
Method: Mice then were euthanized and brains were harvested for examining EAAT2 protein levels by Western blot analysis.
Wild-type C57BL/6 mice (2-3 months old) were treated orally with compound 101 at 0.01, 0.033, 0.1, 0.33, 1, 3.33, 10, 20, 40, 60, and 100 mg/kg/day (voluntary ingestion of compound in honey) for seven or 28 days. Mice then were euthanized and brains were harvested for examining EAAT2 protein levels by Western blot analysis. […] To determine the functional consequences of the increased EAAT2 to the synaptic plasticity, wild-type mice were treated with vehicle or compound 101 at 0.033, 0.33, and 3.3 mg/kg for seven days. Mice were then euthanized and acute hippocampal slices were collected and assessed for changes in long-term potentiation (LTP).

[1] = tested on: CA3-CA1 LTP in the hippocampus; test: Long-term potentiation (LTP) in acute hippocampal slices of treated wild-type mice; assay type: in vivo; conditions: 0.033, 0.33, and 3.3 mg/kg for seven days, vs vehicle
Method: Mice were treated with compound at 40 mg/kg (or as depicted) and forebrains were harvested for the gliosome preparation 24 hr (or as described) post-treatment. FIG. 2A: Western blots show dose-dependent increase of EAAT2 protein levels. FIG. 2B: Time-dependent fold increase in EAAT2 protein expression in response to compound treatment at 4 hours (1.54±0.13) and 24 hours (1.98±0.19) post-treatment. Quantification of EAAT2 expression time course (normalized to flotilin; n=4/group). Data represented as mean SEM and analyzed using one-way ANOVA with Tukey post-hoc test. *p<0.05, **p<0.01. FIG. 2C: Compound treatment enhances CA3-CA1 LTP in the hippocampus. Mice were treated with vehicle or compound for seven days and acute hippocampal sections were collected for LTP recordings. […] Data represented as mean SEM analyzed using one-way ANOVA with Bonferroni post-hoc tests. […]
At 24 hours post-treatment, mice were euthanized and forbrains were harvested. […] Acute hippocampal slices were then collected and assessed for changes in long-term potentiation (LTP).
Wild-type C57BL/6 mice (2-3 months old) were treated orally with compound 101 at 0.01, 0.033, 0.1, 0.33, 1, 3.33, 10, 20, 40, 60, and 100 mg/kg/day (voluntary ingestion of compound in honey) for seven or 28 days. […] Mice were then euthanized and acute hippocampal slices were collected and assessed for changes in long-term potentiation (LTP).

| Structure (SMILES) | Fold increase for EAAT2 at indicated concentration (maximum activity) (human EAAT2) | concentration that reaches maximum activity (human EAAT2) | EAAT2 protein levels in mouse brains (EAAT2) | CA1 field potential responses to stimulation of CA3 afferents (LTP) [1] |
| --- | --- | --- | --- | --- |
| O=c1ccc(-c2ccccn2)nn1Cc1ncco1 [Compound 146, 2-(Oxazol-2-ylmethyl)-6-(pyridin-2-yl)pyridazin-3(2H)-one] | 2.6 ± 0.2 fold | 2.5 µM |  |  |
| CNCCn1nc(-c2ccccn2)ccc1=O [Compound 101, 2-(2-(Methylamino)ethyl)-6-(pyridin-2-yl)pyridazin-3(2H)-one hydrochloride] | 2.6 ± 0.2 fold | 0.3 µM | dose-dependently increased | significantly increased responses |
| NCCn1nc(-c2ccccn2)ccc1=O [Compound 102, 2-(2-Aminoethyl)-6-(pyridin-2-yl)pyridazin-3(2H)-one hydrochloride] | 2.8 ± 0.3 fold | 1.25 µM |  |  |
| CC(c1ccccn1)n1nc(-c2ccccn2)ccc1=O (stereo not shown) [Compound 198, 6-(Pyridin-2-yl)-2-(1-(pyridin-2-yl)ethyl)pyridazin-3(2H)-one] | 2.0 ± 0.3 fold | 0.15 µM |  |  |
| Cc1cc(-c2ccccn2)nn(CCN(C)C)c1=O [Compound 195, 2-(2-(Dimethylamino)ethyl)-4-methyl-6-(pyridin-2-yl)pyridazin-3(2H)-one hydrochloride] | 2.5 ± 0.2 fold | 0.3 µM |  |  |
| COCCn1nc(-c2ccccn2)ccc1=O [Compound 172, 2-(2-Methoxyethyl)-6-(pyridin-2-yl)pyridazin-3(2H)-one] | 2.9 ± 0.1 fold | 0.3 µM |  |  |
| CN(CCn1nc(-c2ccccn2)ccc1=O)c1ccccc1 [Compound 110, 2-(2-(Methyl(phenyl)amino)ethyl)-6-(pyridin-2-yl)pyridazin-3(2H)-one] | 2.3 ± 0.3 fold | 0.6 µM |  |  |
| CN(C)CCn1cc(-c2ccccn2)ncc1=O [Compound 214, 1-(2-(Dimethylamino)ethyl)-5-(pyridin-2-yl)pyrazin-2(1H)-one hydrochloride] | 1.5 ± 0.1 fold | 2.5 µM |  |  |
| COc1cccc(-c2ccc(=O)n(CCN(C)C)n2)c1 [Compound 207, 2-(2-(Dimethylamino)ethyl)-6-(3-methoxyphenyl)pyridazin-3(2H)-one hydrochloride] | 3.5 ± 0.3 fold | 0.15 µM |  |  |
| O=c1ccc(-c2ccccn2)nn1CCN1CCOCC1 [Compound 126, 2-(2-Morpholinoethyl)-6-(pyridin-2-yl)pyridazin-3(2H)-one hydrochloride] | 2.2 ± 0.5 fold | 0.3 µM |  |  |
| CN(C)CCCn1nc(-c2ccccn2)ccc1=O [Compound 166, 2-(3-(Dimethylamino)propyl)-6-(pyridin-2-yl)pyridazin-3(2H)-one hydrochloride] | 2.0 ± 0.2 fold | 0.3 µM |  |  |
| COc1ccc(-c2ccc(=O)n(CCN(C)C)n2)cc1 [Compound 208, 2-(2-(Dimethylamino)ethyl)-6-(4-methoxyphenyl)pyridazin-3(2H)-one hydrochloride] | 1.7 ± 0.2 fold | 0.3 µM |  |  |
| CN(C)CCn1cc(-c2ccccn2)ccc1=O [Compound 213, 1′-(2-(Dimethylamino)ethyl)-[2,3′-bipyridin]-6′(1′H)-one hydrochloride] | 2.3 ± 0.1 fold | 0.6 µM |  |  |
| CN(C)CCOc1ccccc1NC(=O)Cn1nc(-c2ccccn2)ccc1=O [Compound 203, N-(2-(2-(Dimethylamino)ethoxy)phenyl)-2-(6-oxo-3-(pyridin-2-yl)pyridazin-1(6H)-yl)acetamide] | 2.0 ± 0.2 fold | 0.6 µM |  |  |
| CNC(=O)CCn1nc(-c2ccccn2)ccc1=O [Compound 123, N-Methyl-3-(6-oxo-3-(pyridin-2-yl)pyridazin-1(6H)-yl)propanamide] | 2.5 ± 0.2 fold | 0.3 µM |  |  |
| COc1ccccc1-c1ccc(=O)n(CCN(C)C)n1 [Compound 206, 2-(2-(Dimethylamino)ethyl)-6-(2-methoxyphenyl)pyridazin-3(2H)-one hydrochloride] | 2.4 ± 0.1 fold | 0.15 µM |  |  |
| Cc1cc(=O)n(CCN(C)C)nc1-c1ccccn1 [Compound 196, N,N-2-(2-(dimethylamino)ethyl)-5-methyl-6-(pyridin-2-yl)pyridazin-3(2H)-one hydrochloride] | 4.2 ± 0.2 fold | 0.6 µM |  |  |
| O=C1CCCN1CCn1nc(-c2ccccn2)ccc1=O [Compound 133, 2-(2-(2-Oxopyrrolidin-1-yl)ethyl)-6-(pyridin-2-yl)pyridazin-3(2H)-one] | 1.9 ± 0.3 fold | 2.5 µM |  |  |
| Cn1ccnc1Cn1nc(-c2ccccn2)ccc1=O [Compound 201] | 2.5 ± 0.4 fold | 0.6 µM |  |  |

Reference: patent publication US11702403B2, “EAAT2 activators and methods of using thereof” (OHIO STATE INNOVATION FOUNDATION, priority 2018, dated 2023)
